According to paper PMC6886798, “Expression of myeloid Src-family kinases is associated with poor prognosis in AML and influences Flt3-ITD kinase inhibitor acquired resistance” (PLoS ONE, 2019):

Legend:
Assay in all cases: KINOMEscan
Conditions in all cases: 1.0 µM
[1] = target: T1, ABL1(F317L)-nonphosphorylated (Homo sapiens, UniProt P00519, F317L); assay type: binding
T1 construct: purchased Eurofins/DiscoverX KINOMEscan scanMAX
Experimental: (§1) Kinase retention to the immobilized ligand is then measured using quantitative real-time PCR for each kinase-specific DNA barcode.

[2] = target: T2, ABL1(Q252H)-phosphorylated (Homo sapiens, UniProt P00519, Q252H); assay type: binding
T2 construct: purchased Eurofins/DiscoverX KINOMEscan scanMAX
Experimental: as §1

ABL2 = target: T3, ABL2 (Homo sapiens, UniProt P42684); assay type: binding
T3 construct: purchased Eurofins/DiscoverX KINOMEscan scanMAX
Experimental: as §1

ACVR1 = target: T4, ACVR1 (Homo sapiens, UniProt Q04771); assay type: binding
T4 construct: purchased Eurofins/DiscoverX KINOMEscan scanMAX
Experimental: as §1

ASK1 = target: T5, ASK1 (Homo sapiens, UniProt Q99683); assay type: binding
T5 construct: purchased Eurofins/DiscoverX KINOMEscan scanMAX
T5 sequence (Q99683 whole entry): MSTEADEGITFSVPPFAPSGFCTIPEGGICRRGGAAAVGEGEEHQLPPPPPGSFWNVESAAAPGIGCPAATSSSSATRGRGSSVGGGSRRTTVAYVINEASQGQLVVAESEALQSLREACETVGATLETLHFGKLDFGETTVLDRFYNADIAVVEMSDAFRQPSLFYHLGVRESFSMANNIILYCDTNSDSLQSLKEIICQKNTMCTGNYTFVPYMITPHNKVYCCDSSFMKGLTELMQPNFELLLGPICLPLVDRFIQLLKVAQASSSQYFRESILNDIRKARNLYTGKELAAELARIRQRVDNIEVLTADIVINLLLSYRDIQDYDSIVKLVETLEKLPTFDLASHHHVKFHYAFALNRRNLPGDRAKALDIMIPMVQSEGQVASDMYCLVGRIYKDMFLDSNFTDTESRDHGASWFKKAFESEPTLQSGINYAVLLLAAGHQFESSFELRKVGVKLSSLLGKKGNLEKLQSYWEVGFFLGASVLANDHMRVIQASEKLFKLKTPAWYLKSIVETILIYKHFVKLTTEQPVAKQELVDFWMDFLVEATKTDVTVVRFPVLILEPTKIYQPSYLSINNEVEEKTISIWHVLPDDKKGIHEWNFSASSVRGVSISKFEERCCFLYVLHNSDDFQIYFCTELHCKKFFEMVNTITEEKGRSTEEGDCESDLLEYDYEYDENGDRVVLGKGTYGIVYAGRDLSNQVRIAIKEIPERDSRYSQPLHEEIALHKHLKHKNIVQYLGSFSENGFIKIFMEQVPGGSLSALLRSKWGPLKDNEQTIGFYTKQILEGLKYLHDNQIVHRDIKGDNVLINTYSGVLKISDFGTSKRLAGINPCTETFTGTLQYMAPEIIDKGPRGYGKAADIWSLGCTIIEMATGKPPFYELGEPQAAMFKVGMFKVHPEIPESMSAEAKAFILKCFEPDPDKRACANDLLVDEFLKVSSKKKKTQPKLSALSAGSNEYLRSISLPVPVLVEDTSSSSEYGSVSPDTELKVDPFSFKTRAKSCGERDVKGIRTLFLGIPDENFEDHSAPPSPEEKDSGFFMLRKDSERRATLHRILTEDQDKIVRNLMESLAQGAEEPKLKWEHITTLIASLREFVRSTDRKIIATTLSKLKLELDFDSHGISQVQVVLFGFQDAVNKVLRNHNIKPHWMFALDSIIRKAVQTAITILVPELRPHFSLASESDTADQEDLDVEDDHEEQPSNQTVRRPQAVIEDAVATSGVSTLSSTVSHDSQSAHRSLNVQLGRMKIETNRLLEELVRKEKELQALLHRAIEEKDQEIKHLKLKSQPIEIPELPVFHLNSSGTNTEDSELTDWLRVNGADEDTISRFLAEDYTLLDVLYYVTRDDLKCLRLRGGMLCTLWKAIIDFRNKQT
Experimental: as §1

CSNK1D = target: T6, CSNK1D (Homo sapiens, UniProt P48730); assay type: binding
T6 construct: purchased Eurofins/DiscoverX KINOMEscan scanMAX
T6 sequence (P48730 whole entry): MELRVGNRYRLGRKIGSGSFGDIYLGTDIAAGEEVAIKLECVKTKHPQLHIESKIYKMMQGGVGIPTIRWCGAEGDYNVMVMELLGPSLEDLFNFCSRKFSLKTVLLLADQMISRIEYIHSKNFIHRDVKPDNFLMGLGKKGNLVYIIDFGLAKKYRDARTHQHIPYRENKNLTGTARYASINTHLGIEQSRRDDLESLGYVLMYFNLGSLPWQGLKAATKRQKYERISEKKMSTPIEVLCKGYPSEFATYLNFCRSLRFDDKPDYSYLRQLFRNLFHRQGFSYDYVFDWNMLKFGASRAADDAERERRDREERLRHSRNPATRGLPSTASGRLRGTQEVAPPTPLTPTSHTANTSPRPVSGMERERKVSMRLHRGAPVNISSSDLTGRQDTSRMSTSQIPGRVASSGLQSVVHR
Experimental: as §1

DCAMKL2 = target: T7, DCAMKL2 (Homo sapiens, UniProt Q8N568); assay type: binding
T7 construct: purchased Eurofins/DiscoverX KINOMEscan scanMAX
Experimental: as §1

EPHA7 = target: T8, EPHA7 (Homo sapiens, UniProt Q15375); assay type: binding
T8 construct: purchased Eurofins/DiscoverX KINOMEscan scanMAX
T8 sequence (Q15375 28-998): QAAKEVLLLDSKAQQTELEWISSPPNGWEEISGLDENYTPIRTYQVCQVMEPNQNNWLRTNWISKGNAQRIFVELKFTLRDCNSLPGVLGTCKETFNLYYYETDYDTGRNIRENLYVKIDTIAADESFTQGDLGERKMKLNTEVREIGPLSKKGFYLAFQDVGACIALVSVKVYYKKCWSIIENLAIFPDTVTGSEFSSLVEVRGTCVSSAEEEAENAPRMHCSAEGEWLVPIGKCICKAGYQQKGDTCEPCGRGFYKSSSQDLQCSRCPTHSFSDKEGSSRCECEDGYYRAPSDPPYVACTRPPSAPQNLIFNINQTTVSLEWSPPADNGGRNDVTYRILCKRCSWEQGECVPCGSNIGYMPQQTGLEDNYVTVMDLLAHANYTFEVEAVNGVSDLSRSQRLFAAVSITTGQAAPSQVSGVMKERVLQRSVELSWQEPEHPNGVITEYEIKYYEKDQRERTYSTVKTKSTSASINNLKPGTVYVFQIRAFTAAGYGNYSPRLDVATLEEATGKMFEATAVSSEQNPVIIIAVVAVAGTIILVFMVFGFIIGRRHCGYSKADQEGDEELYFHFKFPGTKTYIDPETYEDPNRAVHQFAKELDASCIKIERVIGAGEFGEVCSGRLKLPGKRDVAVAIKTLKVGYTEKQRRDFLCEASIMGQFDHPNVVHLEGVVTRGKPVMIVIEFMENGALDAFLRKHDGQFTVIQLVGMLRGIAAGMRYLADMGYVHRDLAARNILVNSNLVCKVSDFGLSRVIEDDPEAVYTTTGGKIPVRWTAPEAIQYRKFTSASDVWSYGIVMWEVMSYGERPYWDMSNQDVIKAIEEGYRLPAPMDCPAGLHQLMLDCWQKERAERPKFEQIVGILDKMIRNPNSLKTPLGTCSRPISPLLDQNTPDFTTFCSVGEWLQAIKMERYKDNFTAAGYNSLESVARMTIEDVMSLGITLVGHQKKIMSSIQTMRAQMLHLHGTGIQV
Experimental: as §1

EPHB3 = target: T9, EPHB3 (Homo sapiens, UniProt P54753); assay type: binding
T9 construct: purchased Eurofins/DiscoverX KINOMEscan scanMAX
T9 sequence (P54753 34-998): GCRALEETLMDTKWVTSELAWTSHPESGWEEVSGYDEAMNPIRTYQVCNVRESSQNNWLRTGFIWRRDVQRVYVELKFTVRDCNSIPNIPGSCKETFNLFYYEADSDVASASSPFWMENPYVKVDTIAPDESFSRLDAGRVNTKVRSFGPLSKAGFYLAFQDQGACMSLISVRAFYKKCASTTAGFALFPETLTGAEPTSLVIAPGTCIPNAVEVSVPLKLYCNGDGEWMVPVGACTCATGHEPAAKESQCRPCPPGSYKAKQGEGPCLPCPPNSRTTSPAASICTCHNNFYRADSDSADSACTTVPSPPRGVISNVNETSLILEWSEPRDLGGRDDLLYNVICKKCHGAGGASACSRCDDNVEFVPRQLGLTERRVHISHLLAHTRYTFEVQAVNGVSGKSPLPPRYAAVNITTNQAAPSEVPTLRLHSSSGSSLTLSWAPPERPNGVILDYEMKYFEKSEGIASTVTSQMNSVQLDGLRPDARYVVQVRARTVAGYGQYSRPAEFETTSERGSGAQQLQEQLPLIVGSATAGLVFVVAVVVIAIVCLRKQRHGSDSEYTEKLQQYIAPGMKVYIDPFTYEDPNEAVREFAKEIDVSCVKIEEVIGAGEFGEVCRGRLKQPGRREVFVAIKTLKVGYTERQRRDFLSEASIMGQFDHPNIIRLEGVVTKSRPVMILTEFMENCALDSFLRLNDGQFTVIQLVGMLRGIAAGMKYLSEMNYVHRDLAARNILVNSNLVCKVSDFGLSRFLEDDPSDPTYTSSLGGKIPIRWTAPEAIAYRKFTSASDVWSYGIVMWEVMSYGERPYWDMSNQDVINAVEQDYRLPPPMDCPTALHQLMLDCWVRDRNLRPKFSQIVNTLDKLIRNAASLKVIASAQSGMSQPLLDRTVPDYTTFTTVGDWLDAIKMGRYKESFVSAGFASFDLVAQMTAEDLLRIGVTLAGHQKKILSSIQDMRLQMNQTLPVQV
Experimental: as §1

ERBB4 = target: T10, ERBB4 (Homo sapiens, UniProt Q15303); assay type: binding
T10 construct: purchased Eurofins/DiscoverX KINOMEscan scanMAX
Experimental: as §1

ERN1 = target: T11, ERN1 (Homo sapiens, UniProt O75460); assay type: binding
T11 construct: purchased Eurofins/DiscoverX KINOMEscan scanMAX
Experimental: as §1

FLT3(D835H) = target: T12, FLT3(D835H) (Homo sapiens, UniProt P36888, D835H); assay type: binding
T12 construct: purchased Eurofins/DiscoverX KINOMEscan scanMAX
Experimental: as §1

FLT3(K663Q) = target: T13, FLT3(K663Q) (Homo sapiens, UniProt P36888, K663Q); assay type: binding
T13 construct: purchased Eurofins/DiscoverX KINOMEscan scanMAX
Experimental: as §1

GRK1 = target: T14, GRK1 (Homo sapiens, UniProt Q15835); assay type: binding
T14 construct: purchased Eurofins/DiscoverX KINOMEscan scanMAX
Experimental: as §1

GRK3 = target: T15, GRK3 (Homo sapiens, UniProt P35626); assay type: binding
T15 construct: purchased Eurofins/DiscoverX KINOMEscan scanMAX
Experimental: as §1

HIPK3 = target: T16, HIPK3 (Homo sapiens, UniProt Q9H422); assay type: binding
T16 construct: purchased Eurofins/DiscoverX KINOMEscan scanMAX
Experimental: as §1

HPK1 = target: T17, HPK1 (Homo sapiens, UniProt Q92918); assay type: binding
T17 construct: purchased Eurofins/DiscoverX KINOMEscan scanMAX
Experimental: as §1

IRAK4 = target: T18, IRAK4 (Homo sapiens, UniProt Q9NWZ3); assay type: binding
T18 construct: purchased Eurofins/DiscoverX KINOMEscan scanMAX
Experimental: as §1

[3] = target: T19, JAK1(JH2domain-pseudokinase) (Homo sapiens, UniProt P23458); assay type: binding
T19 construct: JAK1(JH2domain-pseudokinase); purchased Eurofins/DiscoverX KINOMEscan scanMAX
Experimental: as §1

JNK3 = target: T20, JNK3 (Homo sapiens, UniProt P53779); assay type: binding
T20 construct: purchased Eurofins/DiscoverX KINOMEscan scanMAX
Experimental: as §1

KIT(A829P) = target: T21, KIT(A829P) (Homo sapiens, UniProt P10721, A829P); assay type: binding
T21 construct: purchased Eurofins/DiscoverX KINOMEscan scanMAX
T21 sequence (P10721 26-976 A829P): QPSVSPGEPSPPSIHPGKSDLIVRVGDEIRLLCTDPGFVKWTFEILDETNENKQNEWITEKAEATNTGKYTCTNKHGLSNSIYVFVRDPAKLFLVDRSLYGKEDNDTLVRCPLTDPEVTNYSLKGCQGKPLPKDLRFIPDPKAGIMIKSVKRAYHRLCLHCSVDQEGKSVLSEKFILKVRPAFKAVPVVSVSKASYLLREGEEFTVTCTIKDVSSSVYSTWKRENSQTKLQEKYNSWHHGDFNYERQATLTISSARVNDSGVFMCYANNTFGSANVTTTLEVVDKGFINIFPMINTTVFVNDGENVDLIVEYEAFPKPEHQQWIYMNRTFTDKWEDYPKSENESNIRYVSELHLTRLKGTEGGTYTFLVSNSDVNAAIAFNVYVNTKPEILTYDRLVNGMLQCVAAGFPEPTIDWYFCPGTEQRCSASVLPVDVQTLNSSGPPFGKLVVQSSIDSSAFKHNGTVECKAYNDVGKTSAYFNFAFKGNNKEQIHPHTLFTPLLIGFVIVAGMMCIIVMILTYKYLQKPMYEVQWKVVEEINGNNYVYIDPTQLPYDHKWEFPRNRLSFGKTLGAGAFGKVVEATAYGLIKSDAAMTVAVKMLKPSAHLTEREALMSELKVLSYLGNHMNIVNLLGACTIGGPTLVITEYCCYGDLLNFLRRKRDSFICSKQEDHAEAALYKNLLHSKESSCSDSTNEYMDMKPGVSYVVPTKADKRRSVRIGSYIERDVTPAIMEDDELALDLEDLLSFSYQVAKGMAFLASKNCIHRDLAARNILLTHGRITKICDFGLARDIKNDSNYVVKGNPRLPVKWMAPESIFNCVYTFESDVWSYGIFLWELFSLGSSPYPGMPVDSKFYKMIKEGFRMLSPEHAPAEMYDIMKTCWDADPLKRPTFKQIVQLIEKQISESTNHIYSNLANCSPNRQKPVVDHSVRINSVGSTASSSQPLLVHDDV
Experimental: as §1

KIT(V559D,V654A) = target: T22, KIT(V559D,V654A) (Homo sapiens, UniProt P10721, V559D/V654A); assay type: binding
T22 construct: purchased Eurofins/DiscoverX KINOMEscan scanMAX
T22 sequence (P10721 26-976 V559D/V654A): as the sequence (P10721 26-976 A829P) above, with V534D, V629A, P804A counted along it
Experimental: as §1

LKB1 = target: T23, LKB1 (Homo sapiens, UniProt Q15831); assay type: binding
T23 construct: purchased Eurofins/DiscoverX KINOMEscan scanMAX
Experimental: as §1

LRRK2(G2019S) = target: T24, LRRK2(G2019S) (Homo sapiens, UniProt Q5S007, G2019S); assay type: binding
T24 construct: purchased Eurofins/DiscoverX KINOMEscan scanMAX
Experimental: as §1

MAK = target: T25, MAK (Homo sapiens, UniProt P20794); assay type: binding
T25 construct: purchased Eurofins/DiscoverX KINOMEscan scanMAX
Experimental: as §1

MAP3K15 = target: T26, MAP3K15 (Homo sapiens, UniProt Q6ZN16); assay type: binding
T26 construct: purchased Eurofins/DiscoverX KINOMEscan scanMAX
Experimental: as §1

MARK2 = target: T27, MARK2 (Homo sapiens, UniProt Q7KZI7); assay type: binding
T27 construct: purchased Eurofins/DiscoverX KINOMEscan scanMAX
Experimental: as §1

MST2 = target: T28, MST2 (Homo sapiens, UniProt Q13188); assay type: binding
T28 construct: purchased Eurofins/DiscoverX KINOMEscan scanMAX
Experimental: as §1

PIK3CA(E545A) = target: T29, PIK3CA(E545A) (Homo sapiens, UniProt P42336, E545A); assay type: binding
T29 construct: purchased Eurofins/DiscoverX KINOMEscan scanMAX
Experimental: as §1

PIK3CA(I800L) = target: T30, PIK3CA(I800L) (Homo sapiens, UniProt P42336, I800L); assay type: binding
T30 construct: purchased Eurofins/DiscoverX KINOMEscan scanMAX
Experimental: as §1

RIPK1 = target: T31, RIPK1 (Homo sapiens, UniProt Q13546); assay type: binding
T31 construct: purchased Eurofins/DiscoverX KINOMEscan scanMAX
Experimental: as §1

[4] = target: T32, RPS6KA5(Kin.Dom.2-C-terminal) (Homo sapiens, UniProt O75582); assay type: binding
T32 construct: RPS6KA5(Kin.Dom.2-C-terminal); purchased Eurofins/DiscoverX KINOMEscan scanMAX
Experimental: as §1

[5] = target: T33, RSK4(Kin.Dom.2-C-terminal) (Homo sapiens, UniProt Q9UK32); assay type: binding
T33 construct: RSK4(Kin.Dom.2-C-terminal); purchased Eurofins/DiscoverX KINOMEscan scanMAX
Experimental: as §1

SGK2 = target: T34, SGK2 (Homo sapiens, UniProt Q9HBY8); assay type: binding
T34 construct: purchased Eurofins/DiscoverX KINOMEscan scanMAX
T34 sequence (Q9HBY8 whole entry): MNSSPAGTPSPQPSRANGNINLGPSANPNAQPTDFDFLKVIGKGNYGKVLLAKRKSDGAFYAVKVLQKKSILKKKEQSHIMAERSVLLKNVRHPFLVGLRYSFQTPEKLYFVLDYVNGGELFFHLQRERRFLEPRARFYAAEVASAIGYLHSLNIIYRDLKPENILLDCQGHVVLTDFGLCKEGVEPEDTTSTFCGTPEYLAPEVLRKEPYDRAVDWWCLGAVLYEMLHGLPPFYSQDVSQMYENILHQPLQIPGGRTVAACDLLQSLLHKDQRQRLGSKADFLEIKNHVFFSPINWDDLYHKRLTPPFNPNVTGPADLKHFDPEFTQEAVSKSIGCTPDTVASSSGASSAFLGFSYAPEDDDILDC
Experimental: as §1

TSSK1B = target: T35, TSSK1B (Homo sapiens, UniProt Q9BXA7); assay type: binding
T35 construct: DNA tag (qPCR barcode); purchased Eurofins/DiscoverX KINOMEscan scanMAX
Experimental: as §1

TYRO3 = target: T36, TYRO3 (Homo sapiens, UniProt Q06418); assay type: binding
T36 construct: DNA tag (qPCR barcode); purchased Eurofins/DiscoverX KINOMEscan scanMAX
Experimental: as §1

VPS34 = target: T37, VPS34 (Homo sapiens, UniProt Q8NEB9); assay type: binding
T37 construct: DNA tag (qPCR barcode); purchased Eurofins/DiscoverX KINOMEscan scanMAX
Experimental: as §1

p38-delta = target: T38, p38-delta (Homo sapiens, UniProt O15264); assay type: binding
T38 construct: purchased Eurofins/DiscoverX KINOMEscan scanMAX
Experimental: as §1

p38-gamma = target: T39, p38-gamma (Homo sapiens, UniProt P53778); assay type: binding
T39 construct: purchased Eurofins/DiscoverX KINOMEscan scanMAX
Experimental: as §1

EGFR(L747-T751del,Sins) = assay type: binding, human
Experimental: as §1

SMILES: CN1CCN(C2CCC(n3cc(-c4ccc(Oc5ccccc5)cc4)c4c(N)ncnc43)CC2)CC1 (stereo not shown) [A-419259]
- % Control [1]: 4.7%
- % Control [2]: 0.5%
- % Control (ABL2): 4.9%
- % Control (ACVR1): 100%
- % Control (ASK1): 100%
- % Control (CSNK1D): 8.3%
- % Control (DCAMKL2): 87%
- % Control (EPHA7): 100%
- % Control (EPHB3): 100%
- % Control (ERBB4): 0%
- % Control (ERN1): 82%
- % Control (FLT3(D835H)): 12%
- % Control (FLT3(K663Q)): 5.6%
- % Control (GRK1): 100%
- % Control (GRK3): 100%
- % Control (HIPK3): 91%
- % Control (HPK1): 44%
- % Control (IRAK4): 90%
- % Control [3]: 100%
- % Control (JNK3): 99%
- % Control (KIT(A829P)): 5.9%
- % Control (KIT(V559D,V654A)): 18%
- % Control (LKB1): 100%
- % Control (LRRK2(G2019S)): 100%
- % Control (MAK): 100%
- % Control (MAP3K15): 79%
- % Control (MARK2): 82%
- % Control (MST2): 82%
- % Control (PIK3CA(E545A)): 100%
- % Control (PIK3CA(I800L)): 98%
- % Control (RIPK1): 100%
- % Control [4]: 96%
- % Control [5]: 94%
- % Control (SGK2): 90%
- % Control (TSSK1B): 100%
- % Control (TYRO3): 66%
- % Control (VPS34): 63%
- % Control (p38-delta): 99%
- % Control (p38-gamma): 100%
- % Control (EGFR(L747-T751del,Sins)): 16%
